Literature values in patent US8748575B2, “Therapeutic peptides” (Combimab, Inc., priority 2010, dated 2014).
Like-named read-outs stand apart in the source and are kept apart here. Residues, ends and D or L forms follow the SMILES beside them.

What was measured:
[1] = cited from earlier work
[2] = cited from earlier work; remark: listed apart in the source
[3] = human intestinal fluid; cited from earlier work
[4] = 12 weeks treatment period; cited from earlier work
[5] = molecular target: T1, GCC (Homo sapiens, UniProt P25092); conditions: read-out: affinity for the interaction with GCC, cited from earlier work
T1 construct: human small intestine (n=20) and colon (n=24) specimens; host or cells: human small intestine and colon specimens
T1 sequence (P25092 24-1073): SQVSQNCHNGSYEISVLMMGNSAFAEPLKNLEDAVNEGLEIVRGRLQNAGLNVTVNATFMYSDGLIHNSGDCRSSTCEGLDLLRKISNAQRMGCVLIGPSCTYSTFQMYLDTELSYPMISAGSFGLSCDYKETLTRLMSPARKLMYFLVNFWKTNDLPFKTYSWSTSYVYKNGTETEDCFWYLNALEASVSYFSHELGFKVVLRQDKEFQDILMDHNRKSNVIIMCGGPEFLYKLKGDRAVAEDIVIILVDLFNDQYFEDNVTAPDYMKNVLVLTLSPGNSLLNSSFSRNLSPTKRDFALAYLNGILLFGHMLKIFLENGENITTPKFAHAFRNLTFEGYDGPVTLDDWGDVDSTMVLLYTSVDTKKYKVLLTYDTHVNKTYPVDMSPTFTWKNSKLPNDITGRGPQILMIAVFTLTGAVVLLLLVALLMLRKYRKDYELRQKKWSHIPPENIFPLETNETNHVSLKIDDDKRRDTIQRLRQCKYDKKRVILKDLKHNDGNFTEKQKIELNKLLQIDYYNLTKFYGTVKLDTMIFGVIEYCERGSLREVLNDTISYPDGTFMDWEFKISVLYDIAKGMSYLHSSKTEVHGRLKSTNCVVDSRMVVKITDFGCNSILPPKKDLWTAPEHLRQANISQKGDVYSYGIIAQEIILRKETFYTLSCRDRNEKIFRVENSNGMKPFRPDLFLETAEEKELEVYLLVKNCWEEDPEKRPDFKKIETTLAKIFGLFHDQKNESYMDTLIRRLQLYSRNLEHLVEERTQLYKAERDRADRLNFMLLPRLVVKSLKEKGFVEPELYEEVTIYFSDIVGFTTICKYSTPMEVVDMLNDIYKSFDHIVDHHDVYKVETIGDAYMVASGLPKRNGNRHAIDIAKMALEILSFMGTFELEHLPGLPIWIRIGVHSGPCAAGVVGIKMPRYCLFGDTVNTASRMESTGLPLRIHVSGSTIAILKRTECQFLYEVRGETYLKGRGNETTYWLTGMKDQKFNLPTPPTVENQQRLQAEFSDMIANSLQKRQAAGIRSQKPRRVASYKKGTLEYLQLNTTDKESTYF

[6] = molecular target: T2, GCC (Rattus norvegicus, UniProt P23897); set-up: GCC expressed in the duodenum, cecum and colon; host or cells: intestinal tissue (duodenum, cecum, colon); conditions: GCC expressed in the duodenum, cecum and colon; read-out: affinity (Ki) for GCC; cited from earlier work
T2 sequence (P23897 23-1072): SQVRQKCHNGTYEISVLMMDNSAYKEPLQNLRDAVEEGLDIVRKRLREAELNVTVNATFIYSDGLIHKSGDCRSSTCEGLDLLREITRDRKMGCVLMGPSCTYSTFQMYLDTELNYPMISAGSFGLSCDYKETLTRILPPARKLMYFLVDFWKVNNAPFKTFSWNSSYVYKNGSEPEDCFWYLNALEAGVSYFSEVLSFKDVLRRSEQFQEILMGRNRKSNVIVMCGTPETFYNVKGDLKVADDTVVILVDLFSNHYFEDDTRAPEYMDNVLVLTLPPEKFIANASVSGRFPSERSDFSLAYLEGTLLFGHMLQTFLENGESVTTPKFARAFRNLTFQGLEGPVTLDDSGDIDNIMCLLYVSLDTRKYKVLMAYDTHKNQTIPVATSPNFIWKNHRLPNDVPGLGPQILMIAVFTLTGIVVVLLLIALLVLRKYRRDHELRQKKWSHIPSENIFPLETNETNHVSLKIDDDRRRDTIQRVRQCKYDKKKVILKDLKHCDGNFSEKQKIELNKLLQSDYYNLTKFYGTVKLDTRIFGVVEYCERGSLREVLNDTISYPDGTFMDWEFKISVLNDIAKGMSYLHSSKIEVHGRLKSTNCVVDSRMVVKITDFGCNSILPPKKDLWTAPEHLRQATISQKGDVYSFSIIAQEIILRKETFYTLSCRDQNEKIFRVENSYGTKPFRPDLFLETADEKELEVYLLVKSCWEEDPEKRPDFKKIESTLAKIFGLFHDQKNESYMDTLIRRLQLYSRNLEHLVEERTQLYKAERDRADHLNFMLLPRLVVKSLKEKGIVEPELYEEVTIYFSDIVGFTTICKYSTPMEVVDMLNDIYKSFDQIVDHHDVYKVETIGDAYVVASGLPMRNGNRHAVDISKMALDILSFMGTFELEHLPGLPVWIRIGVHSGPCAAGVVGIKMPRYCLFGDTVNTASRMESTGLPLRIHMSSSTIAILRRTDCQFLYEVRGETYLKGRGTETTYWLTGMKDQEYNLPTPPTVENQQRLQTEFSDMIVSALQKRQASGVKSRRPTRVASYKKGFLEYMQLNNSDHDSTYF

[7] = molecular target: T2, GCC; set-up: ligated intestinal loops from Sprague Dawley and Wistar rats; host or cells: rat jejunal and ileal loops in vivo; conditions: ileum relative to jejunum; cited from earlier work

Compound	stable in simulated gastric fluid for [1]	half life ([2]; rat duodenal fluid)	half life ([2]; rat ileal fluid)	half life ([2]; rat intestinal fluid) [min]	half life ([2]; rat jejunal fluid) [min]	half life [3] [min]	patients achieving primary efficacy endpoint (three or more CSBMs per week and increase of at least one CSBM per week over baseline for at least nine of 12 weeks) [4] [%]	Ki ([5]; human colon specimens (n=24)) [nM]	Ki ([5]; human small intestine specimens (n=20)) [nM]	Ki [6] [nM]	duration of response in intestinal loops [7]
C[C@@H]1NC(=O)[C@@H]2CCCN2C(=O)[C@H](CC(N)=O)NC(=O)[C@@H]2CSSC[C@H](N)C(=O)N[C@H]3CSSC[C@H](NC1=O)C(=O)N[C@@H]([C@@H](C)O)C(=O)NCC(=O)N[C@H](C(=O)N[C@@H](Cc1ccc(O)cc1)C(=O)O)CSSC[C@H](NC(=O)[C@H](Cc1ccc(O)cc1)NC(=O)[C@H](CCC(=O)O)NC3=O)C(=O)N2 [Linaclotide, H2N Cys Cys Glu Tyr Cys Cys Asn Pro Ala Cys Thr Gly Cys Tyr COOH] (HELM PEPTIDE1{C.C.E.Y.C.C.N.P.A.C.T.G.C.Y}$PEPTIDE1,PEPTIDE1,1:R3-6:R3|PEPTIDE1,PEPTIDE1,2:R3-10:R3|PEPTIDE1,PEPTIDE1,5:R3-13:R3$$$V2.0)	up to 3 hours	about 0.44 minutes	about 30 minutes	3	0.36	1	21				
H2N Asn Thr Phe Tyr Cys Cys Glu Leu Cys Cys Asn Pro Ala Cys Ala Gly Cys Tyr COOH [STa(1-18)]								1.2	1.9	1 to 4	significantly longer duration of response in the Ileum relative to the jejunum
